Here are results for 23 molecules from ChEMBL document CHEMBL4177762, “Combined Approach of Backbone Amide Linking and On-Resin N-Methylation for the Synthesis of Bioactive and Metabolically Stable Peptides” (J Med Chem, 2018).

Type in all cases: functional, organism-based
In assay [1] the test system is Trypanosoma brucei rhodesiense. Description: Antiprotozoal activity against trypomastigote stage of Trypanosoma brucei rhodesiense STIB900 after 72 hrs by Alamar Blue assay. The settings on record: for IC50: STIB900, 72 h. (In general: Resazurin is reduced to fluorescent resorufin, in cell work by metabolically active cells.)
In a further assay the test system is Plasmodium falciparum. Nature of the assay: Antiprotozoal activity against IEF stage of Plasmodium falciparum NF54 after 48 hrs by [3H]-hypoxanthine incorporation assay.
In another assay the test system is Pseudomonas aeruginosa. Description: Antibacterial activity against Pseudomonas aeruginosa ATCC 27853 assessed as growth inhibition up to 128 ug/ml.
In a further assay the test system is Micrococcus luteus. Description: Antibacterial activity against Micrococcus luteus ATCC 9341 assessed as growth inhibition up to 128 ug/ml.
In the next assay the test system is Escherichia coli. Nature of the assay: Antibacterial activity against Escherichia coli ATCC 25922 assessed as growth inhibition up to 128 ug/ml.
A further assay relates to Enterococcus faecalis. Nature of the assay: Antibacterial activity against Enterococcus faecalis ATCC 29212 assessed as growth inhibition up to 128 ug/ml.
For assay [2], the system named is Staphylococcus aureus. Description: Antibacterial activity against Staphylococcus aureus ATCC 29213 assessed as growth inhibition up to 128 ug/ml.
Assay [3] has as its system Staphylococcus aureus. Description: Antibacterial activity against methicillin-resistant Staphylococcus aureus ATCC 43300 assessed as growth inhibition up to 128 ug/ml.

Structures are written as SMILES. ≈ marks a conversion by molar mass, not a printed value. Calls of active or inactive are those of the source. The rule behind the calls is not given here. Non-standard residues stand in square brackets, D forms with d. Residues, ends and D or L forms follow the SMILES beside them. *: point of attachment. NH(2-(1-naphthyl)ethyl) = c1ccc2c(CCN*)cccc2c1; NMeF = CN[C@@H](Cc1ccccc1)C(=O)O; NMeL = CN[C@@H](CC(C)C)C(=O)O; NHPhenethyl = c1ccc(CCN*)cc1; NMeV = CN[C@H](C(=O)O)C(C)C; NMeC = CN[C@@H](CS)C(=O)O

Usually IC50 stands for the point on the concentration scale where inhibition reaches its midpoint. Low values mean greater potency in that assay, high ones weaker potency in that assay.

In assay [1], `CC(C)C[C@@H](N)C(=O)N[C@H](CC(C)C)C(=O)N[C@H](CC(C)C)C(=O)N[C@H](CC(C)C)C(=O)NCCc1ccccc1` had an IC50 of 1.4 to 2.1 µg/mL (≈ 2.44 to 3.66 µM).

The molecule `CN[C@@H](CC(C)C)C(=O)N(C)[C@@H](CC(C)C)C(=O)N(C)[C@@H](CC(C)C)C(=O)N(C)[C@@H](CC(C)C)C(=O)N(C)[C@H](CC(C)C)C(=O)NCCc1ccccc1` returned an IC50 in assay [1] of 1.4 to 2.1 µg/mL (≈ 1.85 to 2.77 µM).

Regarding `CN[C@H](CC(C)C)C(=O)N(C)[C@H](CC(C)C)C(=O)N(C)[C@H](CC(C)C)C(=O)N(C)[C@H](CC(C)C)C(=O)NCCc1ccccc1`, the IC50 in assay [1] lay in the range of 1.4 to 2.1 µg/mL (≈ 2.22 to 3.33 µM).

As to `CCC(C)[C@H]1NC(=O)[C@@H](C(C)C)NC(=O)[C@H]([C@@H](C)O)NC(=O)[C@H](Cc2c[nH]c3ccccc23)NC(=O)[C@@H](NC(C)=O)[C@@H](C)OC(=O)[C@H](CC(C)C)NC1=O` (stereo not given in full), it took 31.6 µg/mL (≈ 41.9 µM) to reach half-maximal inhibition in assay [1] (IC50).

`CN[C@@H](CC(C)C)C(=O)N(C)[C@H](CC(C)C)C(=O)N(C)[C@@H](CC(C)C)C(=O)N(C)[C@@H](CC(C)C)C(=O)NCCc1ccccc1`: in assay [1], the IC50 lay within 1.4 to 2.1 µg/mL (≈ 2.22 to 3.33 µM).

In the assay on Plasmodium falciparum, `CC(C)C[C@@H](NC=O)C(=O)N[C@@H]1C(=O)N[C@H](Cc2ccccc2)C(=O)N[C@H](C(C)C)C(=O)N[C@@H](Cc2ccc(O)cc2)C(=O)N[C@@H](Cc2c[nH]c3ccccc23)C(=O)O[C@@H]1C` gave an IC50 of 0.995 µg/mL (≈ 1.19 µM).

Consider `CN[C@@H](CC(C)C)C(=O)N(C)[C@@H](CC(C)C)C(=O)N(C)[C@H](CC(C)C)C(=O)N(C)[C@@H](CC(C)C)C(=O)NCCc1ccccc1`, for which the IC50 in assay [1] is 17.5 µg/mL (≈ 27.8 µM).

Turning to `CN[C@H](CC(C)C)C(=O)N(C)[C@@H](CC(C)C)C(=O)N(C)[C@@H](CC(C)C)C(=O)N(C)[C@@H](CC(C)C)C(=O)NCCc1ccccc1`, the IC50 in assay [1] fell in the range of 1.4 to 2.1 µg/mL (≈ 2.22 to 3.33 µM).

Turning to `CC(C)C[C@@H](N)C(=O)N[C@@H](CC(C)C)C(=O)N(C)[C@@H](CC(C)C)C(=O)N(C)[C@@H](CC(C)C)C(=O)NCCc1ccccc1`, in assay [1], the half-maximal inhibitory concentration (IC50) lay within 1.4 to 2.1 µg/mL (≈ 2.33 to 3.49 µM).

For `CN[C@@H](CC(C)C)C(=O)N(C)[C@@H](CC(C)C)C(=O)N(C)[C@@H](CC(C)C)C(=O)N(C)[C@@H](CC(C)C)C(=O)N(C)[C@@H](CC(C)C)C(=O)NCCc1ccccc1`, the result in assay [1] was Active.

As for `CN[C@@H](Cc1ccccc1)C(=O)N(C)[C@@H](Cc1ccccc1)C(=O)N(C)[C@@H](Cc1ccccc1)C(=O)N(C)[C@@H](Cc1ccccc1)C(=O)NCCc1ccccc1` (H-[NMeF][NMeF][NMeF][NMeF]-NHPhenethyl), the outcome in assay [1] was Active.

For `CN[C@@H](Cc1ccccc1)C(=O)N(C)[C@@H](Cc1ccccc1)C(=O)N(C)[C@@H](Cc1ccccc1)C(=O)N(C)[C@@H](Cc1ccccc1)C(=O)N(C)[C@@H](Cc1ccccc1)C(=O)N(C)[C@@H](Cc1ccccc1)C(=O)NCCc1ccccc1` (H-[NMeF][NMeF][NMeF][NMeF][NMeF][NMeF]-NHPhenethyl), in assay [1], the outcome was Active.

As to `CN[C@@H](CC(C)C)C(=O)N(C)[C@@H](CC(C)C)C(=O)N(C)[C@@H](CC(C)C)C(=O)N(C)[C@@H](CS)C(=O)NCCc1ccccc1` (H-[NMeL][NMeL][NMeL][NMeC]-NHPhenethyl), the 50% inhibitory concentration (IC50) in assay [1] amounted to 5.6 µg/mL (≈ 9.03 µM).

In the case of `CN[C@@H](CC(C)C)C(=O)N(C)[C@@H](CC(C)C)C(=O)N(C)[C@@H](CC(C)C)C(=O)N(C)[C@@H](CS)C(=O)NCCc1cccc2ccccc12` (H-[NMeL][NMeL][NMeL][NMeC]-{NH(2-(1-naphthyl)ethyl)}), in assay [1], half-maximal inhibition (IC50) required 7.5 µg/mL (≈ 11.2 µM).

Consider `CN[C@@H](CC(C)C)C(=O)N(C)[C@@H](CC(C)C)C(=O)N(C)[C@@H](CC(C)C)C(=O)N(C)[C@@H](CC(C)C)C(=O)NCCc1cccc2ccccc12` (H-[NMeL][NMeL][NMeL][NMeL]-{NH(2-(1-naphthyl)ethyl)}), for which the IC50 in assay [1] turned out to be 1 µg/mL (≈ 1.47 µM).

For the molecule `CN[C@@H](CC(C)C)C(=O)N(C)[C@@H](CC(C)C)C(=O)N(C)[C@@H](CC(C)C)C(=O)N(C)[C@@H](CC(C)C)C(=O)N(C)[C@@H](CC(C)C)C(=O)N(C)[C@@H](CC(C)C)C(=O)NCCc1ccccc1` (H-[NMeL][NMeL][NMeL][NMeL][NMeL][NMeL]-NHPhenethyl), the result in assay [1] was Active. The “growth inhibition (GI)” value with Pseudomonas aeruginosa, in the assay with Micrococcus luteus, in the assay on Escherichia coli, in the assay with Enterococcus faecalis, in the assay on Staphylococcus aureus [2] and in the assay on Staphylococcus aureus [3] was “inactive” throughout.

Take `CN[C@@H](CC(C)C)C(=O)N(C)[C@@H](CC(C)C)C(=O)N(C)[C@@H](CC(C)C)C(=O)N(C)[C@@H](CC(C)C)C(=O)N(C)[C@@H](CC(C)C)C(=O)N(C)[C@@H](CC(C)C)C(=O)N(C)[C@@H](CC(C)C)C(=O)NCCc1ccccc1` (H-[NMeL][NMeL][NMeL][NMeL][NMeL][NMeL][NMeL]-NHPhenethyl): the outcome in assay [1] was Active.

Regarding `CN[C@H](C(=O)N(C)[C@H](C(=O)N(C)[C@H](C(=O)N(C)[C@@H](CS)C(=O)NCCc1ccccc1)C(C)C)C(C)C)C(C)C` (H-[NMeV][NMeV][NMeV][NMeC]-NHPhenethyl), half-maximal inhibition in assay [1] (IC50) required 3 µg/mL (≈ 5.19 µM).

For the molecule `CN[C@H](C(=O)N(C)[C@H](C(=O)N(C)[C@H](C(=O)N(C)[C@H](C(=O)N(C)[C@H](C(=O)NCCc1ccccc1)C(C)C)C(C)C)C(C)C)C(C)C)C(C)C` (H-[NMeV][NMeV][NMeV][NMeV][NMeV]-NHPhenethyl), in assay [1], the outcome was Active.

With `CN[C@H](C(=O)N(C)[C@H](C(=O)N(C)[C@H](C(=O)N(C)[C@H](C(=O)N(C)[C@H](C(=O)N(C)[C@@H](Cc1ccccc1)C(=O)NCCc1ccccc1)C(C)C)C(C)C)C(C)C)C(C)C)C(C)C` (H-[NMeV][NMeV][NMeV][NMeV][NMeV][NMeF]-NHPhenethyl), the “growth inhibition (GI)” value in the assay with Pseudomonas aeruginosa, with Micrococcus luteus, with Escherichia coli, in the assay on Enterococcus faecalis, with Staphylococcus aureus [2] and in the assay on Staphylococcus aureus [3] was “inactive” throughout.

On to `CN[C@H](C(=O)N(C)[C@H](C(=O)N(C)[C@H](C(=O)N(C)[C@H](C(=O)N(C)[C@H](C(=O)N(C)[C@@H](CC(C)C)C(=O)NCCc1ccccc1)C(C)C)C(C)C)C(C)C)C(C)C)C(C)C` (H-[NMeV][NMeV][NMeV][NMeV][NMeV][NMeL]-NHPhenethyl), for which the “growth inhibition (GI)” value with Pseudomonas aeruginosa, with Micrococcus luteus, in the assay with Escherichia coli, with Enterococcus faecalis, in the assay with Staphylococcus aureus [2] and in the assay with Staphylococcus aureus [3] was “inactive” throughout.

On to `CN[C@H](C(=O)N(C)[C@H](C(=O)N(C)[C@H](C(=O)N(C)[C@H](C(=O)N(C)[C@H](C(=O)N(C)[C@H](C(=O)NCCc1ccccc1)C(C)C)C(C)C)C(C)C)C(C)C)C(C)C)C(C)C` (H-[NMeV][NMeV][NMeV][NMeV][NMeV][NMeV]-NHPhenethyl), for which the outcome in assay [1] was Active. Besides, the “growth inhibition (GI)” value with Pseudomonas aeruginosa, with Micrococcus luteus, with Escherichia coli, in the assay with Enterococcus faecalis, with Staphylococcus aureus [2] and with Staphylococcus aureus [3] was “inactive” in each case.

On to `CN[C@H](C(=O)N(C)[C@H](C(=O)N(C)[C@H](C(=O)N(C)[C@H](C(=O)N(C)[C@H](C(=O)N(C)[C@H](C(=O)N(C)[C@H](C(=O)NCCc1ccccc1)C(C)C)C(C)C)C(C)C)C(C)C)C(C)C)C(C)C)C(C)C` (H-[NMeV][NMeV][NMeV][NMeV][NMeV][NMeV][NMeV]-NHPhenethyl), for which the result in assay [1] was Active.
